In paper PMC7265341, “Quantifying CDK inhibitor selectivity in live cells” (Nature Communications, 2020):
Where two headings read alike, the source gives them in different places.

Tests used:
[1] = target: CDK4/Cyclin D1 (Homo sapiens, UniProt P11802); test: NanoBRET live-cell target engagement, NanoLuc-CDK4/Cyclin D1 in HEK-293; assay type: binding; details: CDK4/D1; for IC50: read-out: IC50; for inhibition at 10 µM: read-out: Inhibition at 10µM (%)
[2] = target: CDK17/Cyclin Y (Homo sapiens, UniProt Q00537); test: NanoBRET live-cell target engagement, CDK17-NanoLuc/Cyclin Y in HEK-293; assay type: binding; details: CDK17/Y; for IC50: read-out: IC50; for inhibition at 10 µM: read-out: Inhibition at 10µM (%)
[3] = target: CDK6/Cyclin D1 (Homo sapiens, UniProt Q00534); test: NanoBRET live-cell target engagement, NanoLuc-CDK6/Cyclin D1 in HEK-293; assay type: binding; details: CDK6/D1; for IC50: read-out: IC50; for inhibition at 10 µM: read-out: Inhibition at 10µM (%)
[4] = target: CDK10/Cyclin L2 (Homo sapiens, UniProt Q15131); test: NanoBRET live-cell target engagement, CDK10-NanoLuc/Cyclin L2 in HEK-293; details: read-out: Inhibition at 10µM (%), CDK10/L2
[5] = target: CDK12/Cyclin K (Homo sapiens, UniProt Q9NYV4); test: NanoBRET live-cell target engagement, CDK12-NanoLuc/Cyclin K in HEK-293; assay type: binding; details: CDK12/K, read-out: Inhibition at 10µM (%)
[6] = target: CDK11B/Cyclin L2 (Homo sapiens, UniProt P21127); test: NanoBRET live-cell target engagement, CDK11B-NanoLuc/Cyclin L2 in HEK-293; assay type: binding; details: CDK11b/L2, read-out: Inhibition at 10µM (%)
[7] = target: CDK1/Cyclin E1 (Homo sapiens, UniProt P06493); test: NanoBRET live-cell target engagement, CDK1-NanoLuc/Cyclin E1 in HEK-293; assay type: binding; details: CDK1/E1, read-out: Inhibition at 10µM (%)
[8] = target: CDK20/Cyclin H (Homo sapiens, UniProt Q8IZL9); test: NanoBRET live-cell target engagement, NanoLuc-CDK20/Cyclin H in HEK-293; assay type: binding; details: CDK20/H, read-out: Inhibition at 10µM (%)
[9] = target: CDK18/Cyclin Y (Homo sapiens, UniProt Q07002); test: NanoBRET live-cell target engagement, CDK18-NanoLuc/Cyclin Y in HEK-293; assay type: binding; details: CDK18/Y; for IC50: read-out: IC50; for inhibition at 10 µM: read-out: Inhibition at 10µM (%)
[10] = target: CDK9/Cyclin K (Homo sapiens, UniProt P50750); test: NanoBRET live-cell target engagement, NanoLuc-CDK9/Cyclin K in HEK-293; assay type: binding; details: CDK9/K, read-out: Inhibition at 10µM (%)
[11] = target: CDK16/Cyclin Y (Homo sapiens, UniProt Q00536); test: NanoBRET live-cell target engagement, CDK16-NanoLuc/Cyclin Y in HEK-293; assay type: binding; details: CDK16/Y; for IC50: read-out: IC50; for inhibition at 10 µM: read-out: Inhibition at 10µM (%)
[12] = target: CDK13/Cyclin K (Homo sapiens, UniProt Q14004); test: NanoBRET live-cell target engagement, CDK13-NanoLuc/Cyclin K in HEK-293; assay type: binding; details: CDK13/K, read-out: Inhibition at 10µM (%)
[13] = target: CDK14/Cyclin Y (Homo sapiens, UniProt O94921); test: NanoBRET live-cell target engagement, CDK14-NanoLuc/Cyclin Y in HEK-293; assay type: binding; details: CDK14/Y; for IC50: read-out: IC50; for inhibition at 10 µM: read-out: Inhibition at 10µM (%)
[14] = target: T1, CDK11A/Cyclin L2 (Homo sapiens, UniProt Q9UQ88); test: NanoBRET live-cell target engagement, CDK11A-NanoLuc/Cyclin L2 in HEK-293; assay type: binding; details: CDK11a/L2, read-out: Inhibition at 10µM (%)
T1 sequence (Q9UQ88 1-783): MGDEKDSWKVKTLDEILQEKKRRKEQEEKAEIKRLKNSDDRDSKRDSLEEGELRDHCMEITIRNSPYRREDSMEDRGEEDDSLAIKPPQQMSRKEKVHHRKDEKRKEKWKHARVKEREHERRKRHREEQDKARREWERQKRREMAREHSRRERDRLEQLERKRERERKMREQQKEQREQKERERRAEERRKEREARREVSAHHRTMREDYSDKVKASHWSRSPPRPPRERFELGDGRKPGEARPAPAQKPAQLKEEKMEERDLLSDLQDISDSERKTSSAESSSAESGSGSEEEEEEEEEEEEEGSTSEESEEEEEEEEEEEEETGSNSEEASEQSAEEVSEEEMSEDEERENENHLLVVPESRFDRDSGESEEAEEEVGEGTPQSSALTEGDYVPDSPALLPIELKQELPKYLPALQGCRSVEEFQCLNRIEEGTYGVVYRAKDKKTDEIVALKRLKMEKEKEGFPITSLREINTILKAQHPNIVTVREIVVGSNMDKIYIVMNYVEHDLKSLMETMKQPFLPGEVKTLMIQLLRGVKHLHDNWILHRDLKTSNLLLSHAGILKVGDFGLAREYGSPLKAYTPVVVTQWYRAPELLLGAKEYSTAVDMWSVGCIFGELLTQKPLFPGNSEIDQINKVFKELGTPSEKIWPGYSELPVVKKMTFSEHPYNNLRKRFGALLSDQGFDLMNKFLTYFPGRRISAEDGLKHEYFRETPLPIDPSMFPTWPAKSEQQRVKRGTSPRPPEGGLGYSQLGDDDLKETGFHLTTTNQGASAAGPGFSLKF

[15] = target: CDK5/CDK5R1 (Homo sapiens, UniProt Q00535); test: NanoBRET live-cell target engagement, CDK5-NanoLuc/CDK5R1 in HEK-293; assay type: binding; details: CDK5/CDK5R1, read-out: Inhibition at 10µM (%)
[16] = target: CDK2/Cyclin E1 (Homo sapiens, UniProt P24941); test: NanoBRET live-cell target engagement, CDK2-NanoLuc/Cyclin E1 in HEK-293; assay type: binding; details: CDK2/E1, read-out: Inhibition at 10µM (%)
[17] = target: CDK19/Cyclin C (Homo sapiens, UniProt Q9BWU1); test: NanoBRET live-cell target engagement, NanoLuc-CDK19/Cyclin C in HEK-293; details: read-out: Inhibition at 10µM (%), CDK19/C
[18] = target: CDK15/Cyclin Y (Homo sapiens, UniProt Q96Q40); test: NanoBRET live-cell target engagement, NanoLuc-CDK15/Cyclin Y in HEK-293; assay type: binding; details: CDK15/Y, read-out: Inhibition at 10µM (%)
[19] = target: CDK8/Cyclin C (Homo sapiens, UniProt P49336); test: NanoBRET live-cell target engagement, NanoLuc-CDK8/Cyclin C in HEK-293; assay type: binding; details: CDK8/C, read-out: Inhibition at 10µM (%)

Chain of CDK16/Cyclin Y (Q00536 whole entry): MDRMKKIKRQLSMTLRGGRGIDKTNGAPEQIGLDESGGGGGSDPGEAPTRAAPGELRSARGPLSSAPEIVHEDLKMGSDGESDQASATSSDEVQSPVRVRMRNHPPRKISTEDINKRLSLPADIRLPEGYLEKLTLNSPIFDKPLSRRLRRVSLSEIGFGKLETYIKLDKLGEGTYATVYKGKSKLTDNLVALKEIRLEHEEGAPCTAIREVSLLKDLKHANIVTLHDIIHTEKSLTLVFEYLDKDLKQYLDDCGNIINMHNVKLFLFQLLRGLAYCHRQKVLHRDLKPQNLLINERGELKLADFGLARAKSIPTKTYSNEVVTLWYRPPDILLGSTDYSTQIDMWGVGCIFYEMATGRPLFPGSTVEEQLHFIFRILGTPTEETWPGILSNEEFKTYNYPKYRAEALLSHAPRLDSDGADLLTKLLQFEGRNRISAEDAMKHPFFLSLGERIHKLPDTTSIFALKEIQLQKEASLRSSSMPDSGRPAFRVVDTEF
Chain of CDK16/Cyclin Y (Q8ND76 whole entry partner): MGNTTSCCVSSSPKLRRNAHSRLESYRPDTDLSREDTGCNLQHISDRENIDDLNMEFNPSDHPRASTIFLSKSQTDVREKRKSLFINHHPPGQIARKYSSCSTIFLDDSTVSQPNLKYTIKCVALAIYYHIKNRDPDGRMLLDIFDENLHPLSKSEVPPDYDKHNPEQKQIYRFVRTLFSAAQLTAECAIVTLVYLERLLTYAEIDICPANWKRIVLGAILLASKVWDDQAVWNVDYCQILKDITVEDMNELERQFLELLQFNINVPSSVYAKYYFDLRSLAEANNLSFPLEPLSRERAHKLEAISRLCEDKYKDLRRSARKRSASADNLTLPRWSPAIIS
Chain of CDK9/Cyclin K (P50750 whole entry): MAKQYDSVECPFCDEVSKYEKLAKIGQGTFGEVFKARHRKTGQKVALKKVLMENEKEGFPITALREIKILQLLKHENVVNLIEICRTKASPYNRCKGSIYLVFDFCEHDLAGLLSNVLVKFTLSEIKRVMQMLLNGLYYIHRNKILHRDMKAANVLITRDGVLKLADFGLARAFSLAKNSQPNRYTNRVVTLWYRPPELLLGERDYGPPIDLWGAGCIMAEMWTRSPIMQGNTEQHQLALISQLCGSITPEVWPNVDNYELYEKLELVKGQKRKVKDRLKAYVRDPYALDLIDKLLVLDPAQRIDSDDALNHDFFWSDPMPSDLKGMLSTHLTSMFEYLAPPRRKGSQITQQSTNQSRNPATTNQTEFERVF
Chain of CDK9/Cyclin K (O75909 whole entry partner): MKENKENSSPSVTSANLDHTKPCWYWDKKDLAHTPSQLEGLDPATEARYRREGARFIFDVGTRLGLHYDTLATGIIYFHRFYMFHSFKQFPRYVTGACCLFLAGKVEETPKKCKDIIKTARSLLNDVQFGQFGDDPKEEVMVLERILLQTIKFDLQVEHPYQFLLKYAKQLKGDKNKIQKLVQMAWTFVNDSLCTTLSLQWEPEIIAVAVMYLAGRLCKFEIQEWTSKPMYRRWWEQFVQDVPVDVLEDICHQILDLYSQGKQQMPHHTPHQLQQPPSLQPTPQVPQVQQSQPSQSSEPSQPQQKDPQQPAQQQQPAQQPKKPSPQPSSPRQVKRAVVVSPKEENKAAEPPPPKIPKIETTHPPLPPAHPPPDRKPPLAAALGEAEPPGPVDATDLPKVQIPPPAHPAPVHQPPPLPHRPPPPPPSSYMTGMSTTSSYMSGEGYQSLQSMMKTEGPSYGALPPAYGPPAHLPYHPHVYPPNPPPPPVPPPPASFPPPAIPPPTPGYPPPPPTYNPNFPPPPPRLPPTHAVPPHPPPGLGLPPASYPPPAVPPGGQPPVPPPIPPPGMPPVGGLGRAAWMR
Chain of CDK1/Cyclin E1 (P06493 whole entry): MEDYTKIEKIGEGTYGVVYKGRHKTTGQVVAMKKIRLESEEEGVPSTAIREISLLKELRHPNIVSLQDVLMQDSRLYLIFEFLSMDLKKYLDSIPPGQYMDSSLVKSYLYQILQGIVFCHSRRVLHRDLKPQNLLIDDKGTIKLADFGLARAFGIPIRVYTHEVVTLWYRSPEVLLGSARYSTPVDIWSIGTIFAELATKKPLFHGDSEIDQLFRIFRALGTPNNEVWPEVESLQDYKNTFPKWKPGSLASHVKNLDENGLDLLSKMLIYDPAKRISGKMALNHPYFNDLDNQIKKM
Chain of CDK1/Cyclin E1 (P24864 whole entry partner): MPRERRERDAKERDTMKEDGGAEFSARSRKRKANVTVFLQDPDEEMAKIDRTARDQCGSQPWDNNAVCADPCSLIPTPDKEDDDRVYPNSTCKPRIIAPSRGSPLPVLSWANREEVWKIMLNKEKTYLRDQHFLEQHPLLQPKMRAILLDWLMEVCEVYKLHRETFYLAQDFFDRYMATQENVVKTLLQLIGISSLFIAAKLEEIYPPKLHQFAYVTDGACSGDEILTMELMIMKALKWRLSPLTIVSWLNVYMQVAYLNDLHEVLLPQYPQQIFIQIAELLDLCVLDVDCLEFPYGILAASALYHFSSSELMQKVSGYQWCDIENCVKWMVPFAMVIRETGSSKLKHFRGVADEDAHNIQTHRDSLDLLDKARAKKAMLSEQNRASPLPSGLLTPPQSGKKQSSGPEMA
Chain of CDK18/Cyclin Y (Q07002 whole entry): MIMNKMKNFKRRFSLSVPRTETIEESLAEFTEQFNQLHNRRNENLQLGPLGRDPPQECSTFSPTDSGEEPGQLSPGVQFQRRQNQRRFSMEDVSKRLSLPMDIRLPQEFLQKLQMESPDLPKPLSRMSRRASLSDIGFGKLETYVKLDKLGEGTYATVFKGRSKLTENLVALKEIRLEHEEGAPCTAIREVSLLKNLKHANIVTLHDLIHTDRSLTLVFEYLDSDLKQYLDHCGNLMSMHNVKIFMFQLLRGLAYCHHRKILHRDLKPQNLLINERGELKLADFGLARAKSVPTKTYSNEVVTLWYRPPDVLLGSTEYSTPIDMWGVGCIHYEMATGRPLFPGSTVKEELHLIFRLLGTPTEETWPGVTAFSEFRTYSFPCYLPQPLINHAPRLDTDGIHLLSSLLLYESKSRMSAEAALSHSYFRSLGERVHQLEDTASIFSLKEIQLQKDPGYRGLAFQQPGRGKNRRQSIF
Chain of CDK18/Cyclin Y (Q8ND76 whole entry partner): as the sequence (Q8ND76 whole entry partner) above
Chain of CDK6/Cyclin D1 (Q00534 whole entry): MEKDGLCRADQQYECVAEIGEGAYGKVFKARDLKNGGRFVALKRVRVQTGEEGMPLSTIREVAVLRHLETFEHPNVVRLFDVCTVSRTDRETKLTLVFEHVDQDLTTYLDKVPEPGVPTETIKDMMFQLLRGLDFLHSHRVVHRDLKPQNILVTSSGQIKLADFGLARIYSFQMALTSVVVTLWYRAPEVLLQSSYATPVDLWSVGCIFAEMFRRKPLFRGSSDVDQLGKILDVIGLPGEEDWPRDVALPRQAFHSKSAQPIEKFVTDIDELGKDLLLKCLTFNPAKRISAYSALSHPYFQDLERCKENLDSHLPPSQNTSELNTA
Chain of CDK6/Cyclin D1 (P24385 whole entry partner): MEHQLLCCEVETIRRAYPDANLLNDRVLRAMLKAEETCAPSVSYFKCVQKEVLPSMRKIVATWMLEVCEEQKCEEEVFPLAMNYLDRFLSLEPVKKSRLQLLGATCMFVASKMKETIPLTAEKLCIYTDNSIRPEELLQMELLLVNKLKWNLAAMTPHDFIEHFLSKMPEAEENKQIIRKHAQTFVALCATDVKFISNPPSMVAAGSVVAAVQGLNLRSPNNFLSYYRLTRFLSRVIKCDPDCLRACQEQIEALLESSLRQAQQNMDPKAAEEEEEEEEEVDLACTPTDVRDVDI
Chain of CDK17/Cyclin Y (Q00537 whole entry): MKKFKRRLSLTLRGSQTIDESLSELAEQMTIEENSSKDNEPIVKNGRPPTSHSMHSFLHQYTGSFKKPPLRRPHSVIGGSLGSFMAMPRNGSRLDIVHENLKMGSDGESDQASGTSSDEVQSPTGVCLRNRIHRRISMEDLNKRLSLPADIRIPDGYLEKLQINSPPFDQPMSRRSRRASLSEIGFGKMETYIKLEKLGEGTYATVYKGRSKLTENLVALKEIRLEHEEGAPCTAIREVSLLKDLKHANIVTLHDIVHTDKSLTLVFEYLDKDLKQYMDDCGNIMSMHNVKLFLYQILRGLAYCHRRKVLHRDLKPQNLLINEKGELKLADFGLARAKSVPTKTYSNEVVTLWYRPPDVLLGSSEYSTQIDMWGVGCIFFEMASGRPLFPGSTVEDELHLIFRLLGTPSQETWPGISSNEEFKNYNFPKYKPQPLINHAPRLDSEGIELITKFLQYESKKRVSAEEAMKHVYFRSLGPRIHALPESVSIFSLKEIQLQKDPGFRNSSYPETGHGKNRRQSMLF
Chain of CDK17/Cyclin Y (Q8ND76 whole entry partner): as the sequence (Q8ND76 whole entry partner) above
Chain of CDK15/Cyclin Y (Q96Q40 whole entry): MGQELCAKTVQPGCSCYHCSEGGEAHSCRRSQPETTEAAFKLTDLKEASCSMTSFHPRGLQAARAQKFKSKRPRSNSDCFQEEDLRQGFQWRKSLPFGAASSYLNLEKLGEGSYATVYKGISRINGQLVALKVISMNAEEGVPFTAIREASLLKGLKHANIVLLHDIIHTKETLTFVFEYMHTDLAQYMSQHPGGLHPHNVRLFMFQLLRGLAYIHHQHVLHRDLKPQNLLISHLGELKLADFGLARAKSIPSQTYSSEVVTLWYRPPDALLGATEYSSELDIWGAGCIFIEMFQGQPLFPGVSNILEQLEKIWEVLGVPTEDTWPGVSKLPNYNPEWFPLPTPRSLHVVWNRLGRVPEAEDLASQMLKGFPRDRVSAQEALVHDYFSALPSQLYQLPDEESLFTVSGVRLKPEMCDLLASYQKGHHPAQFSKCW
Chain of CDK15/Cyclin Y (Q8ND76 whole entry partner): as the sequence (Q8ND76 whole entry partner) above

IC50 ([1]; average (± SEM where n=3)): 9 ± 3 nM | inhibition at 10 µM ([1]; average): 95.1% | IC50 ([1]; experiment 1): 6.9 nM | inhibition at 10 µM ([1]; experiment 1): 95.8% | IC50 ([1]; experiment 2): 5 nM | inhibition at 10 µM ([1]; experiment 2): 94.3% | IC50 ([1]; experiment 3): 15 nM | IC50 ([2]; average (± SEM where n=3)): 40 ± 4 nM | inhibition at 10 µM ([2]; average): 75.5% | IC50 ([2]; experiment 1): 32 nM | inhibition at 10 µM ([2]; experiment 1): 72.1% | IC50 ([2]; experiment 2): 43 nM | inhibition at 10 µM ([2]; experiment 2): 78.9% | IC50 ([2]; experiment 3): 44 nM | IC50 ([3]; average (± SEM where n=3)): 4 ± 1 nM | inhibition at 10 µM ([3]; average): 97.7% | IC50 ([3]; experiment 1): 4.8 nM | inhibition at 10 µM ([3]; experiment 1): 96.9% | IC50 ([3]; experiment 2): 3.4 nM | inhibition at 10 µM ([3]; experiment 2): 98.5% | IC50 ([3]; experiment 3): 3 nM | inhibition at 10 µM ([4]; average): 4.6% | inhibition at 10 µM ([4]; experiment 1): 8.8% | inhibition at 10 µM ([4]; experiment 2): 0.3% | inhibition at 10 µM ([5]; average): -3.9% | inhibition at 10 µM ([5]; experiment 1): -2.7% | inhibition at 10 µM ([5]; experiment 2): -5% | inhibition at 10 µM ([6]; average): 36.8% | inhibition at 10 µM ([6]; experiment 1): 11.7% | inhibition at 10 µM ([6]; experiment 2): 61.9% | inhibition at 10 µM ([7]; average): 18.6% | inhibition at 10 µM ([7]; experiment 1): 20.1% | inhibition at 10 µM ([7]; experiment 2): 17.1% | inhibition at 10 µM ([8]; experiment 1): 23.1% | inhibition at 10 µM ([8]; experiment 2): 26.8% | IC50 ([9]; average (± SEM where n=3)): 240 ± 50 nM | inhibition at 10 µM ([9]; average): 38.8% | IC50 ([9]; experiment 1): 283 nM | inhibition at 10 µM ([9]; experiment 1): 27.5% | IC50 ([9]; experiment 2): 300 nM | inhibition at 10 µM ([9]; experiment 2): 50% | IC50 ([9]; experiment 3): 150 nM | inhibition at 10 µM ([10]; average): 34.2% | inhibition at 10 µM ([10]; experiment 1): 32% | inhibition at 10 µM ([10]; experiment 2): 36.4% | IC50 ([11]; average (± SEM where n=3)): 39 ± 8 nM | IC50 ([11]; experiment 1): 23 nM | inhibition at 10 µM ([11]; experiment 1): 70.3% | IC50 ([11]; experiment 2): 47 nM | inhibition at 10 µM ([11]; experiment 2): 78.8% | IC50 ([11]; experiment 3): 48 nM | inhibition at 10 µM ([12]; average): -15.1% | inhibition at 10 µM ([12]; experiment 1): -1% | inhibition at 10 µM ([12]; experiment 2): -29.2% | IC50 ([13]; average (± SEM where n=3)): 120 ± 60 nM | inhibition at 10 µM ([13]; average): 45.4% | IC50 ([13]; experiment 1): 34 nM | inhibition at 10 µM ([13]; experiment 1): 56.3% | IC50 ([13]; experiment 2): 220 nM | inhibition at 10 µM ([13]; experiment 2): 34.4% | IC50 ([13]; experiment 3): 99 nM | inhibition at 10 µM ([14]; average): 12.6% | inhibition at 10 µM ([14]; experiment 1): 15.7% | inhibition at 10 µM ([14]; experiment 2): 9.5% | inhibition at 10 µM ([15]; average): 4.3% | inhibition at 10 µM ([15]; experiment 1): 8% | inhibition at 10 µM ([15]; experiment 2): 0.554% | inhibition at 10 µM ([16]; average): 12.6% | inhibition at 10 µM ([16]; experiment 1): 14.4% | inhibition at 10 µM ([16]; experiment 2): 10.7% | inhibition at 10 µM ([17]; average): -0.3% | inhibition at 10 µM ([17]; experiment 1): 6.6% | inhibition at 10 µM ([17]; experiment 2): -7.2% | inhibition at 10 µM ([18]; average): 29.2% | inhibition at 10 µM ([18]; experiment 1): 36% | inhibition at 10 µM ([18]; experiment 2): 22.5% | inhibition at 10 µM ([19]; average): 8.5% | inhibition at 10 µM ([19]; experiment 1): 6.2% | inhibition at 10 µM ([19]; experiment 2): 10.8%
SMILES: CN1CCN(c2ccc(Nc3ncc4cc(C#N)c(=O)n(C5CCCC5)c4n3)cc2)CC1 [ON123300]
